Data reported in patent publication US20240228489A1, “POSITIVE ALLOSTERIC MODULATORS OF THE MUSCARINIC ACETYLCHOLINE RECEPTOR M1” (Vanderbilt University, priority 2021, published 2024).

How the values were obtained:
[1] = target: T1, human mAChR M1 (Homo sapiens, UniProt P11229); test: mAChR M1 cell-based functional assay (calcium mobilization), agonist mode: compound alone, Emax relative to acetylcholine maximum; settings: for Emax: relative to the maximum for acetylcholine
T1 sequence (P11229 1-460): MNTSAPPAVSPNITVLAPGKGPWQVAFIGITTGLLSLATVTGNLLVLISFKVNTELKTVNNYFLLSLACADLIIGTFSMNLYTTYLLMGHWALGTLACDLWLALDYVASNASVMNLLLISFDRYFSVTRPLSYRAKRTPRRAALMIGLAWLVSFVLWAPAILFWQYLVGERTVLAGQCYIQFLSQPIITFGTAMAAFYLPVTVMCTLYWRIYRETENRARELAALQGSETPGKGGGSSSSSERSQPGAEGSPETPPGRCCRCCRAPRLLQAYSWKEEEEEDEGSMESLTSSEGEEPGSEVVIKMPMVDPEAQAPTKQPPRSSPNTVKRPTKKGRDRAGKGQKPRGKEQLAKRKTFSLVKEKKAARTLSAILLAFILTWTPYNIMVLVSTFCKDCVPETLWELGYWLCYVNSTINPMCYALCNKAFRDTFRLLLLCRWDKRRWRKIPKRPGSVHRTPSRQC
Method in brief: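 Agonist activity is the concentration-dependent rise in intracellular calcium (Fluo-4, 1 Hz read) after compound addition, measured before any acetylcholine was added, in stable hM1 CHO-K1 cells. Curves were 11-point, 1:3 dilutions fitted by four-parameter logistic. Emax is given as a fraction of maximal acetylcholine response.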

[2] = target: T1, human mAChR M1; test: mAChR M1 cell-based functional assay (calcium mobilization), PAM mode: increase in the EC20 acetylcholine response
Method in brief: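 PAM readout is the concentration-dependent rise in the EC20 acetylcholine calcium signal, fitted to a four-parameter logistic (EC50, Emax). Compounds were preincubated from 4 s before ACh at 144 s (EC20) and 230 s (EC80). hM1-expressing CHO-K1 cells loaded with Fluo-4, FDSS ratio read.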

Row | Structure (SMILES) | EC50 ([1]; human mAChR M1) [µM] | Emax [1] [%] | EC50 [2] [µM] | Emax [2] [%] | Agonist Activity Human M1 EC50 ([1]; human mAChR M1)
1 | [2H]C1([2H])c2ncccc2C(=O)N1Cc1ccc(-c2ccc(O[C@@H]3CCOC3)c3nn(C)cc23)cc1F [Compound 151, (R)-6-(2-fluoro-4-(2-methyl-7-((tetrahydrofuran-3-yl)oxy)-2H-indazol-4-yl)benzyl)-6,7-dihydro-5H-pyrrolo[3,4-b]pyridin-5-one-7,7-d2] | ≥ 10 | 22 | 0.694 | 76 | 
2 | [2H]C([2H])([2H])Oc1cnc2c(c1)C(=O)N(Cc1ccc(-c3cccc4nn(C)cc34)cc1)C2([2H])[2H] [Compound 83, 3-(methoxy-d3)-6-(4-(2-methyl-2H-indazol-4-yl)benzyl)-6,7-dihydro-5H-pyrrolo[3,4-b]pyridin-5-one-7,7-d2] | 6.23 | 19 | 0.244 | 80 | 
3 | [2H]C1([2H])c2ncccc2C(=O)N1Cc1c(F)cc(-c2ccc(Cl)c3nn(C)cc23)cc1C1CC1 [Compound 206, 6-(4-(7-chloro-2-methyl-2H-indazol-4-yl)-2-cyclopropyl-6-fluorobenzyl)-6,7-dihydro-5H-pyrrolo[3,4-b]pyridin-5-one-7,7-d2] | 9.7 | 38 | 0.335 | 81 | 
4 | [2H]C1([2H])c2ncccc2C(=O)N1Cc1c(F)cc(-c2ccc(OC)c3nn(C([2H])([2H])[2H])cc23)cc1C1CC1 [Compound 209, 6-(2-cyclopropyl-6-fluoro-4-(7-methoxy-2-(methyl-d3)-2H-indazol-4-yl)benzyl)-6,7-dihydro-5H-pyrrolo[3,4-b]pyridin-5-one-7,7-d2] | 2.58 | 62 | 0.769 | 83 | 
5 | [2H]C1([2H])c2ncccc2C(=O)N1Cc1c(F)cc(-c2cccc3nn(C([2H])([2H])[2H])cc23)cc1N1CCC1 [Compound 222, 6-(2-(azetidin-1-yl)-6-fluoro-4-(2-(methyl-d3)-2H-indazol-4-yl)benzyl)-6,7-dihydro-5H-pyrrolo[3,4-b]pyridin-5-one-7,7-d2] |  | 1 | 3.78 | 77 | Inactive
